Data as given in publication PMC11046469, “Leveraging a Phage-Encoded Noncanonical Amino Acid: A Novel Pathway to Potent and Selective Epigenetic Reader Protein Inhibitors” (ACS Central Science, 2024).
Where “and” joins values, the source holds several entries; their conditions need not be identical. Identical values can stand only once. Where a SMILES comes first, the peptide text is derived from it. The star is where a group is joined. Oxazole(5-CO) = O=C(c1cnco1)*; Crotonyl(E) = C/C=C/C(=O)*; 2Furoyl = O=C(c1ccco1)*; Butyryl = CCCC(=O)*

These compounds were tested against T1, ENL YEATS domain (His-ENL YEATS) (Homo sapiens, UniProt Q03111) (assay: AlphaScreen inhibition of ENL YEATS binding to biotinylated H3K27cr peptide). Settings: mean ± SD, n = 3.
T1 construct: (aa 1−148) was cloned in pET19b; made in house; host or cells: E. coli BL21(DE3pLysS)
T1 sequence (Q03111 1-148): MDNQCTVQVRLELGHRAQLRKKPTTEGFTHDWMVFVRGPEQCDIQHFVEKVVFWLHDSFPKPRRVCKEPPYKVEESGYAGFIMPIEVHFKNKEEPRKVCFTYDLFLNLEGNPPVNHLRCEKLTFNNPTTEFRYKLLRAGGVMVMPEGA
Source text: To test the inhibition potency of the two selected peptides for the ENL YEATS domain, ENL-S1 and ENL-S2 were chemically synthesized through solid-phase peptide synthesis (SPPS) and evaluated by an AlphaScreen assay. In this assay, a biotinylated H3K27cr peptide and a 6xHis-tagged ENL YEATS domain (His-ENL YEATS) were immobilized on PerkinElmer streptavidin donor and nickel-chelating (Ni-NTA) acceptor beads, respectively. The use of a His-ENL YEATS instead of the original AviSUMO-ENL YEATS construct in the assay prevents potential false positive results derived from ligands which bind to the SUMO protein but not to the ENL YEATS domain. […] We then assessed the binding affinity of two ligands for the ENL YEATS domain using biolayer interferometry (BLI). Briefly, His-ENL was immobilized onto Ni-NTA functionalized biosensors to measure the binding kinetics of target peptides at different concentrations. […] As a small peptide directly selected from a phage display library, this level of high potency was unexpected. […] However, shorter-than-10-mer linear peptides with nanomolar binding potency have rarely been directly selected from phage display libraries. One example was S2P03, a 7-mer peptide that has a KD value as 49 ± 9 nM to bind to SIRT2.[10] This peptide contained BuK and was identified also from a BuK-containing phage display library using the active site-directed ligand selection technique. Taken together, the two examples confirmed that utilizing phage display libraries incorporated with a ncAA serving as a ligand for a protein target for active site-directed ligand selection is a successful method for identifying ultrahigh potency ligands for epigenetic proteins including both enzymes and readers. For ENL-S1 and ENL-S2, their determined kon and koff values were 6.23 ± 0.07 × 10^4 M^–1 s^–1, […] and […], 5.54 ± 0.02 × 10^–3 s^–1, respectively. Compared to ENL-S2, ENL-S1 has faster binding to the ENL YEATS domain and slower release from it, indicating its potential long-term action on the ENL YEATS inhibition. […]
Characterization of Selected Peptide Inhibitors
AlphaScreen Assay to Validate ENL Inhibitors:
His-ENL, His-AF9 (aa 1-149, EpiCypher), and biotinylated H3K27cr (aa 15-33, EpiCypher) were used to assay the synthesized inhibitors. The lyophilized peptide inhibitors were dissolved in DMF […]
and serially diluted into assay buffer (50 mM HEPES, 100 mM NaCl, 0.1% BSA, 0.05% CHAPS, pH 7.4) and incubated in the presence of 120 nM His-tagged protein at 37 °C for 30 minutes. 12.5 μL of biotinylated H3K27cr (400 nM) was aliquoted into a light gray 384-well Alphaplate (Perkin Elmer) and incubated at 37 °C. 12.5 μL of the inhibitor/protein solution was added to the H3K27cr solution, and incubated for 30 minutes at 37 °C. 25 μL of AlphaScreen histidine (nickel chelate) detection beads (Perkin Elmer) was added at 20 μg/mL each bead (streptavidin donor beads and nickel chelate acceptor beads), and the plate was incubated at 37 °C for 30 minutes. The plate was cooled to room temperature for 10 minutes, and then the beads were excited at 680 nm and the luminescence at 615 nm was read. […]
Biolayer […]
interferometry assays were performed in 96 well plates (GreinerBio-One, polypropylene, flat-bottom) using an Octet Red96 System (Sartorius). Wells were filled with 200 μL of assay buffer, blocking buffer (assay buffer + 0.1% BSA), protein solution, peptide solution, regeneration solution, and reload solution. For immobilization, His-tagged proteins were immobilized onto Ni-NTA sensors at 20 for 600 s. Sensors were then dipped into blocking buffer for 180 s, assay […] buffer for 300 s, peptide solution for 300 s, and back to assay buffer for 300 s. If multiple samples were tested, Ni-NTA sensors can be reconditioned in regeneration (10 mM glycine, pH 1.7) solution followed by reload solution (10 mM NiCl2) for 30 and 60 s, respectively. Measurements […]

| Structure (SMILES) | IC50 |
| --- | --- |
| C/C=C/C(=O)NCCCC[C@H](NC(=O)[C@H](Cc1ccc(O)cc1)NC(=O)[C@H](CS)NC(=O)[C@H](Cc1ccc(O)cc1)NC(=O)[C@@H](NC(=O)[C@H](CC(=O)O)NC(=O)[C@@H](N)Cc1ccc(O)cc1)C(C)C)C(N)=O [ENL-S1c] (H-YDVYCYK(Crotonyl(E))-NH2) | 20 nM |
| CC(C)[C@H](NC(=O)[C@H](CC(=O)O)NC(=O)[C@@H](N)Cc1ccc(O)cc1)C(=O)N[C@@H](Cc1ccc(O)cc1)C(=O)N[C@@H](CS)C(=O)N[C@@H](Cc1ccc(O)cc1)C(=O)N[C@@H](CCCCNC(=O)c1cnco1)C(N)=O [ENL-S1o] (H-YDVYCYK(Oxazole(5-CO))-NH2) | 10 nM and 10.3 nM |
| CCCC(=O)NCCCC[C@H](NC(=O)[C@H](Cc1ccc(O)cc1)NC(=O)[C@H](CS)NC(=O)[C@H](Cc1ccc(O)cc1)NC(=O)[C@@H](NC(=O)[C@H](CC(=O)O)NC(=O)[C@@H](N)Cc1ccc(O)cc1)C(C)C)C(N)=O [ENL-S1] (H-YDVYCYK(Butyryl)-NH2) | 62.6 ± 1.4 nM |
| CC(C)[C@H](NC(=O)[C@H](CC(=O)O)NC(=O)[C@@H](N)Cc1ccc(O)cc1)C(=O)N[C@@H](Cc1ccc(O)cc1)C(=O)N[C@@H](CS)C(=O)N[C@@H](Cc1ccc(O)cc1)C(=O)N[C@@H](CCCCNC(=O)c1ccco1)C(N)=O [ENL-S1f] (H-YDVYCYK(2Furoyl)-NH2) | 22.4 ± 2.2 nM |
